Values quoted from earlier work, collected in patent US10154980B2, “Anti-inflammatory omega-3 synergistic combinations” (LYCORED LTD., priority 2013, dated 2018).

System: NO production
Settings: background, literature references

SMILES	inhibit NO production
CC1=C[C@H](O)CC(C)(C)[C@H]1/C=C/C(C)=C/C=C/C(C)=C/C=C/C=C(C)/C=C/C=C(C)/C=C/C1=C(C)C[C@@H](O)CC1(C)C [lutein, (3R,3′R, 6′R)-beta,epsilon-carotene-3,3′-diol]	shown to inhibit NO production
CC(C)=CCC/C(C)=C/C=C/C(C)=C/C=C/C(C)=C/C=C/C=C(C)/C=C/C=C(C)/C=C/C=C(\C)CCC=C(C)C [lycopene]	shown to inhibit NO production
